From US10857105B2, “Compounds and compositions for intracellular delivery of therapeutic agents” (ModernaTX, Inc., priority 2017, dated 2020) come the findings set out here.

Data set [1] is described as follows: Encapsulation efficiency of RNA in nanoparticle compositions (RIBOGREEN assay). Format: physicochemical. As for the experimental part: For nanoparticle compositions including an RNA, a QUANT-IT™ RIBOGREEN® RNA assay (Invitrogen Corporation Carlsbad, Calif.) can be used to evaluate the encapsulation of an RNA by the nanoparticle composition. The samples are diluted to a concentration of approximately 5 μg/mL, in a TE buffer solution (10 mM Tris-HCl, 1 mM EDTA, pH 7.5). 50 μL of the diluted samples are transferred to a polystyrene 96 well plate and either 50 μL of TE buffer or 50 μL of a 2% Triton X-100 solution is added to the wells. The plate is incubated at a temperature of 37° C. for 15 minutes. The RIBOGREEN® reagent is diluted 1:100 in TE buffer, and 100 μL of this solution is added to each well. The fluorescence intensity can be measured using a fluorescence plate reader (Wallac Victor 1420 Multilabel Counter; Perkin Elmer, Waltham, Mass.) at an excitation wavelength of, for example, about 480 nm and an emission wavelength of, for example, about 520 nm. The fluorescence values of the reagent blank are subtracted from that of each of the samples and the percentage of free RNA is determined by dividing the fluorescence intensity of the intact sample (without addition of Triton X-100) by the fluorescence value of the disrupted sample (caused by the addition of Triton X-100).
(§1) Initial studies were performed to compare the delivery efficiency of nanoparticle compositions including various compounds according to Formula (I), (IA), (IB), (II), (IIa), (IIb), (IIc), (IId), (IIe), (IIf), (IIg), or (III). The cationic lipid MC3 is a current standard in the art. Accordingly, the standard MC3 formulation including about 50 mol % MC3, about 10 mol % DSPC, about 38.5 mol % cholesterol, and about 1.5 mol % PEG-DMG was used as a basis for this study. Nanoparticle compositions including DSPC as a phospholipid, cholesterol as a structural lipid, PEG-DMG as a PEG lipid, an RNA, and a compound according to Formula (I), (IA), (IB), (II), (IIa), (IIb), (IIc), (IId), (IIe), (IIf), (IIg), or (III) selected from Compounds 1-159, 168-170, and 173-175 were prepared according to or via methods similar to those described in Examples 1 and 2. The ratios of the lipids were 50:10:38.5:1.5 mol % for the lipid according to Formula (I), (IA), (IB), (II), (IIa), (IIb), (IIc), (IId), (IIe), (IIf), (IIg), or (III):DSPC:cholesterol:PEG-DMG. The RNA used was an mRNA encoding luciferase (Luc) or hEPO, wherein each uridine was replaced N1-methyl pseudouridine. Tables 1A-1E summarize the content and characteristics of the formulations.

Data set [2] is described as follows: Particle size and polydispersity index of nanoparticle compositions (Zetasizer Nano ZS). It counts as physicochemical. As for the experimental part: A Zetasizer Nano ZS (Malvern Instruments Ltd, Malvern, Worcestershire, UK) can be used to determine the particle size, the polydispersity index (PDI) and the zeta potential of the nanoparticle compositions in 1×PBS in determining particle size and 15 mM PBS in determining zeta potential.
as §1

A further data set has as its system modified luciferase. In words: Luciferase expression in liver, lung, spleen and femur 6 hours after intravenous administration to mice. It counts as in vivo. Conditions: 6 hours after intravenous 0.5 mpk, mice. The method, then: The efficacy of the nanoparticle compositions presented in Table 1A was further evaluated by measuring the expression of modified luciferase in the liver, lung, spleen, and femur upon administration of a given composition. Formulations were administered intravenously to mice (n=3) at a dosage of 0.5 mpk and bioluminescence measured after 6 hours. The standard MC3 formulation and a PBS control were also tested. […] Flux in the liver was lowest for compositions including Compounds 58, 59, 137, and 141. Flux in the spleen was highest for compositions including Compounds 4, 7, 33, 34, 48, 53, 108, 129, 130, and 148, and lowest for compositions including Compounds 9, 59, 124, and 141.

Setting [3] is: Table 1A, lipid:DSPC:cholesterol:PEG-DMG 50:10:38.5:1.5 mol %.
The mark [4] stands for this setting: Table 1B, formulated with hEPO mRNA.

As for `CCCCCCCCCN(CCCCCCCC(=O)OC(CCCCCCCC)CCCCCCCC)CCCn1ccnc1` [Compound 8, Heptadecan-9-yl 8-((3-(1H-imidazol-1-yl)propyl)(nonyl)amino)octanoate], the EE in data set [1] (setting [3]) stood at 95.8%. Besides, the Size in data set [2] (setting [3]) was determined as 121.0 nm. In the data set on modified luciferase, the “Total Flux, Liver” value is reported as 7.87E+08; the “Total Flux, Lung” value stood at 4.06E+06; the “Total Flux, Spleen” value is recorded as 1.51E+08.
As to `CCCCCCCCCOC(=O)CCCCCCCN(CCC#N)CCCCCCCC(=O)OC(CCCCCCCC)CCCCCCCC` [Compound 21, Heptadecan-9-yl 8-((2-cyanoethyl)(8-(nonyloxy)-8-oxooctyl)amino) octanoate], the EE in data set [1] (setting [3]) was −15.1%. The same compound registered a Size in data set [2] (setting [3]) of 53.5 nm.
Turning to `CCCCCCCC/C=C\CCCCCCCCN(CCO)CCCCCCCC(=O)OC(CCCCCCCC)CCCCCCCC` [Compound 31, heptadecan-9-yl (Z)-8-((2-hydroxyethyl)(octadec-9-en-1-yl)amino) octanoate], the EE in data set [1] (setting [3]) is recorded as 95.11%. Moreover, the Size in data set [2] (setting [3]) was found to be 73.9 nm. In the data set with modified luciferase, the “Total Flux, Liver” value was found to be 5.17E+09; the “Total Flux, Lung” value worked out at 7.55E+06; the “Total Flux, Spleen” value amounted to 9.42E+07.
The matching figures for `CCCCCCCCCOC(=O)CCCCCCCN(CCO)CCCCCCCC(=O)OC(CCCCCC)CCCCCCCC` (stereo not drawn) [Compound 32, nonyl 8-((2-hydroxyethyl)(8-oxo-8-(pentadecan-7-yloxy)octyl)amino) octanoate]: 94.87%, 105.6 nm, 8.52E+09, 1.16E+07 and 1.70E+08.
On the same counts, the results for `CCCCCCCCCOC(=O)CCCCCCCN(CCO)CCCCCCCC(=O)OC(CCCCC)CCCCCCCC` (stereo not drawn) [Compound 33, nonyl 8-((2-hydroxyethyl)(8-oxo-8-(tetradecan-6-yloxy)octyl)amino) octanoate] are 95.66%, 107.3 nm, 1.78E+10, 2.92E+07 and 3.77E+08.
On the same counts, the results for `CCCCCCCCCOC(=O)CCCCCCCN(CCO)CCCCCCCC(=O)OC(CCC)CCCCCCCC` (stereo not drawn) [Compound 34, dodecan-4-yl 8-((2-hydroxyethyl)(8-(nonyloxy)-8-oxooctyl)amino) octanoate] are 92.52%, 133.8 nm, 2.08E+09, 9.49E+06 and 2.40E+08.
Turning to `CCCCCCCCCOC(=O)CCCCCCCN(CCO)CCCCCCCC(=O)OC(C)CCCCCCCC` (stereo not drawn) [Compound 36, decan-2-yl 8-((2-hydroxyethyl)(8-(nonyloxy)-8-oxooctyl)amino) octanoate], the EE in data set [1] (setting [3]) turned out to be 81.45%. Also, in the data set on modified luciferase, the “Total Flux, Liver” value is reported as 2.65E+07; the “Total Flux, Lung” value amounted to 5.82E+05; the “Total Flux, Spleen” value turned out to be 6.14E+07.
As for `CCCCCCCCC(CCCCCCCC)OC(=O)CCCCCCCN(CCO)CCCCCCCCC1CC1CCCCCCCC` (stereo not drawn) [Compound 47, heptadecan-9-yl 8-((2-hydroxyethyl)(8-(2-octylyclopropyl)octyl)amino)octanoate], the EE in data set [1] (setting [3]) amounted to 96.40%. The Size in data set [2] (setting [3]) was 80.6 nm. In the data set on modified luciferase, the “Total Flux, Liver” value worked out at 4.86E+09; the “Total Flux, Lung” value is recorded as 8.71E+06; the “Total Flux, Spleen” value stood at 8.33E+07.
`CCCCCCCCC(CCCCCCCC)OC(=O)CCCCCCCN(CCO)CCCC(=O)OCCCC` [Compound 51, heptadecan-9-yl 8-((4-butoxy-4-oxobutyl)(2-hydroxyethyl)amino) octanoate]: the EE in data set [1] (setting [3]) is 89.83%. For the same compound, in the data set with modified luciferase, the “Total Flux, Liver” value is 2.49E+07; the “Total Flux, Lung” value is 3.67E+05; the “Total Flux, Spleen” value is given as 2.80E+07.
Turning to `CCCCCCCCC(CCCCCCCC)OC(=O)CCCCCCCN(CCO)CCCC(=O)OCCCCC` [Compound 52, heptadecan-9-yl 8-((2-hydroxyethyl)(4-oxo-4-(pentyloxy)butyl)amino) octanoate], in data set [1] (setting [3]), the EE is on record as 93.25%. The same compound gave a Size in data set [2] (setting [3]) of 130.5 nm. Besides, in the data set with modified luciferase, the “Total Flux, Liver” value is listed as 5.86E+08; the “Total Flux, Lung” value stood at 2.80E+06; the “Total Flux, Spleen” value is on record as 8.30E+07.
The matching figures for `CCCCCCCCC(CCCCCCCC)OC(=O)CCCCCCCN(CCO)CCCC(=O)OCCCCCC` [Compound 53, heptadecan-9-yl 8-((4-(hexyloxy)-4-oxobutyl)(2-hydroxyethyl)amino) octanoate]: 95.8%, 125.4 nm, 2.02E+09, 2.47E+07 and 8.54E+08.
Take `CCCCCCCCCOC(=O)CCCCCCCN(CCO)CCCCCCCC(=O)OC(CC)CC` [Compound 59, nonyl 8-((2-hydroxyethyl)(8-oxo-8-(pentan-3-yloxy)octyl)amino) octanoate]: the EE in data set [1] (setting [3]) is given as 94.44%. Further, in the data set on modified luciferase, the “Total Flux, Liver” value is 2.87E+05; the “Total Flux, Lung” value came to 4.41E+04; the “Total Flux, Spleen” value was determined as 9.68E+04.
In the case of `CCCCCCCCCOC(=O)CCCCCCCN(CCCCCCCC(=O)OC(CCCCCCCC)CCCCCCCC)CCC(=O)O` [Compound 125, 3-((8-(Heptadecan-9-yloxy)-8-oxooctyl)(8-(nonyloxy)-8-oxooctyl)amino)propanoic acid], in data set [1] (setting [3]), the EE was 79.6%. The Size in data set [2] (setting [3]) is 90.9 nm.
On the same counts, the results for `CCCCCCCCCOC(=O)CCCCCCCN(CCCCCCCC(=O)OC(CCCCCCCC)CCCCCCCC)CCCN(C)S(C)(=O)=O` [Compound 173, Heptadecan-9-yl 8-((3-(N-methylmethylsulfonamido)propyl)(8-(nonyloxy)-8-oxooctyl)amino)octanoate] are 92.89% and 75.5 nm.
With `CCCCCCCCCOC(=O)CCCCCCCN(CCCCCCCC(=O)OC(CCCCCCCC)CCCCCCCC)CCCOC(=O)NC` [Compound 175, Heptadecan-9-yl 8-((3-((methylcarbamoyl)oxy)propyl)(8-(nonyloxy)-8-oxooctyl)amino)octanoate], in data set [1] (setting [3]), the EE was 94.8%. Moreover, the Size in data set [2] (setting [3]) came to 65.7 nm.
On the same counts, the results for `CCCCCCCCCOC(=O)CCCCCCCN(CCCCCCCC(=O)OC(CCCCCCCC)CCCCCCCC)CCCn1ccnn1` [Compound 179, Heptadecan-9-yl 8-((3-(1H-1,2,3-triazol-1-yl)propyl)(8-(nonyloxy)-8-oxooctyl)amino)octanoate] are 94.7% and 71.6 nm.
As to `CCCCCCCCC(CCCCCCCC)OC(=O)CCCCCCCN(CCO)CCCCCC(=O)OC(C)CCCCCCCCOC(C)=O` (stereo not drawn) [Compound 235, Heptadecan-9-yl 8-((6-((10-acetoxydecan-2-yl)oxy)-6-oxohexyl)(2-hydroxyethyl)amino)octanoate], the EE in data set [1] (setting [4]) worked out at 40.9%. This compound also gave a Size in data set [2] (setting [4]) of 228 nm.
On the same counts, the results for `CCCCCCCCCOC(=O)CCCCCCCN(CCCCCCCC(=O)OC(CCCCCCCC)CCCCCCCC)CCCC(N)=O` [Compound 243, Heptadecan-9-yl 8-((4-amino-4-oxobutyl)(8-(nonyloxy)-8-oxooctyl)amino)octanoate] are 99.4% and 90.6 nm.
